Measurements: patent publication US20070104649A1, “Optically fluorescent nanoparticles” (priority 2005, published 2007)

Assay: UV-Vis absorption spectra of co-aggregate (J-aggregate) formation
Type: physicochemical
Details: non-aggregated dye
Method: An aqueous solution of 0.1% (w/v) PEI (1.8, 10, 70, or 750 kDa) is gently stirred, and an aqueous solution of 0.02% (w/v) TITCC is instantly added. This composition is further agitated at about 4° C. for about 30-45 minutes under UV protection. The aggregation progress is monitored by UV-Vis spectra starting from 900 nm down to 600 nm.
This is confirmed by the absence of the starting wavelength of 756 nm of the pure dye, and by the new wavelength maximum at approximately 800 nm from the J-aggregates. In case of 100 and 125% surplus of PEI, the two wavelength maxima indicate that the dye is only partially bound as J-aggregate. Therefore, the wavelength of the pure dye and the wavelength maximum of the J-aggregates can be detected side by side. All measured samples contained the same concentration of dye. The absorption is reduced due to the quenching effects in the J-aggregates. UV-Vis spectra were recorded by UV-2401-PC spectrophotometer (Shimadzu Corp.).
This may be due to a more compact dye-polymer-complex if fewer cationic charges for stabilisation are available. Vice versa, the complexes are less compact having a greater amount of polymer which results in a smaller shift to approximately 795 nm.

- absorption wavelength maximum of the pure dye: 756 nm
SMILES: CC(C=CC=C1N(CCS(=O)(=O)[O-])c2ccc(S(=O)(=O)[O-])cc2C1(C)C)=CC=CC1=[N+](CCS(=O)(=O)[O-])c2ccc(S(=O)(=O)[O-])cc2C1(C)C.[Na+].[Na+].[Na+] [TITCC, trisodium-3,3-dimethyl-2-{4-methyl-7-[3,3-dimethyl-5-sulfonato-1-(2-sulfonatoethyl)-3H-indolium-2-yl]hepta-2,4,6-trien-1-ylidene}-1-(2-sulfonatoethyl)-2,3-dihydro-1H-indole-5-sulfonate, inner salt]
